Measured values published in patent US20240343710A1, “HETEROCYCLIC COMPOUNDS AND METHODS OF USE THEREOF” (1cBio, Inc., priority 2023, published 2024).
pIC50: −log10 of the molar value. Counter-ions that a name gives are not always drawn. Like-named read-outs stand apart in the source and are kept apart here.

Key:
[1] = target: recombinant human PARP1 (Homo sapiens, UniProt P09874); assay: PARP1 fluorescence polarization binding assay; details: GST-tagged PARP1 20 nM, PARP1-FL probe 3 nM
Summary of the method: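 GST-tagged human PARP1 (20 nM final) preincubated 30 min at RT with compound (10-point 3-fold series or single concentration). PARP1-FL probe (3 nM final) added, then 4 h at RT. Buffer: 50 mM Tris pH 8.0, 10 mM MgCl2, 150 mM NaCl, 0.001% Triton X-100. FP mP values normalized to controls; IC50 from four-parameter fit.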

[2] = target: recombinant human PARP2 (Homo sapiens, UniProt Q9UGN5); assay: PARP2 fluorescence polarization binding assay; details: read-out: PARP2 % inh at 10 μM
[3] = system: DLD-1 BRCA2(−/−) colorectal adenocarcinoma cells; assay: Cell viability assay (Cell Titer-Glo, 7 days), DLD-1 BRCA2(−/−); assay type: cell-based; details: Homo sapiens, 168 h, DLD-1 BRCA2(−/−) cells
[4] = system: DLD-1 wild-type colorectal adenocarcinoma cells; assay: Cell viability assay (Cell Titer-Glo, 7 days), DLD-1 wild-type; assay type: cell-based; details: Homo sapiens, 168 h, DLD-1 wild-type cells, read-out: DLD-1 wild-type % inh at 10 μM
[5] = percent inhibition at 10 μM, fluorescence polarization, GST-tagged PARP2 20 nM, PARP1-FL probe 3 nM

Sequence of recombinant human PARP2 (Q9UGN5 whole entry): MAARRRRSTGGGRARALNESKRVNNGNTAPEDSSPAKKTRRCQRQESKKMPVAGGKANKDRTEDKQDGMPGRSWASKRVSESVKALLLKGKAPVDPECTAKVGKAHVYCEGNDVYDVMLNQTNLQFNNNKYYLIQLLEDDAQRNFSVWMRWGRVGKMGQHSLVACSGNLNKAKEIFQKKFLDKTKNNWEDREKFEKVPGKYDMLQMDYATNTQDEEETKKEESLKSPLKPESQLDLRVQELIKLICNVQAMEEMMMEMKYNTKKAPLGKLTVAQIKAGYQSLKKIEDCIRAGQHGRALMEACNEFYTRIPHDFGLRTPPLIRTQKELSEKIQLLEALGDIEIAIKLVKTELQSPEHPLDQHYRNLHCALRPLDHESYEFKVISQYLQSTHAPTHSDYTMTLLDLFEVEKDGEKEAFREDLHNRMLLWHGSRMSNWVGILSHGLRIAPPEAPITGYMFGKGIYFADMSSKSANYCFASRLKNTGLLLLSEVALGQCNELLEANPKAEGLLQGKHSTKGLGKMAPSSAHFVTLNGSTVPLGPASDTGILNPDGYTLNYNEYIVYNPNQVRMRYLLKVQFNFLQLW
Sequence of recombinant human PARP1 (P09874 whole entry): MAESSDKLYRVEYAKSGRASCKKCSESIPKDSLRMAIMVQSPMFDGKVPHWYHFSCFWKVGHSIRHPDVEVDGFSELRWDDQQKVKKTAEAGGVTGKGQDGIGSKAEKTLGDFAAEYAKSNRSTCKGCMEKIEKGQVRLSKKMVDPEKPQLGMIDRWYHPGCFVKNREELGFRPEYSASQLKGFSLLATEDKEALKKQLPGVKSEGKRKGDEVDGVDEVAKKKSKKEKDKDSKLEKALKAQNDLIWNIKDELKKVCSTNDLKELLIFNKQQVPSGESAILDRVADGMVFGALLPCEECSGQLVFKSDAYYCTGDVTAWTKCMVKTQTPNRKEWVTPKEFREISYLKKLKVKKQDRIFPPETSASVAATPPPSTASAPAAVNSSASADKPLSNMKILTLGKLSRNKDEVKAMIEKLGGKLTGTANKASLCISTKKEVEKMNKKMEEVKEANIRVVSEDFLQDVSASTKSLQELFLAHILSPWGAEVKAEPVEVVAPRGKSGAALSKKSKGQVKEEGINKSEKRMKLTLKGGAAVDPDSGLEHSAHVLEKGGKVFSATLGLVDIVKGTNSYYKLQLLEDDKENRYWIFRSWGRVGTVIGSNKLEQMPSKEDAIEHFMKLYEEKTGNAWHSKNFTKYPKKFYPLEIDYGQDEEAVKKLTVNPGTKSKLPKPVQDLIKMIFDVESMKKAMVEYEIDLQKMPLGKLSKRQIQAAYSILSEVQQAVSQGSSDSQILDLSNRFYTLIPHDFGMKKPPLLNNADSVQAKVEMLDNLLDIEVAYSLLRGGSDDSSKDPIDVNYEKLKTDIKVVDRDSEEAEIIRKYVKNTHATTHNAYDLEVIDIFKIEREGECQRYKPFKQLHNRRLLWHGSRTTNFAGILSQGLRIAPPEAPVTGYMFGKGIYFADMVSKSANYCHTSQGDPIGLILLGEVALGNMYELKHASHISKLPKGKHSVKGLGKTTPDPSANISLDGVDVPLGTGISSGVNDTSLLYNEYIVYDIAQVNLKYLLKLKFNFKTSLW

Compound | pIC50 [1] | pIC50 [3] | inhibition at 10 µM [2, 5] | inhibition at 10 µM [2] | inhibition at 10 µM [4]
CCNC(=O)Nc1cc(CN2CCN(c3ccc(C(=O)NC)nc3C)CC2)c(C)cn1 [Compound 70, 5-(4-((2-(3-ethylureido)-5-methylpyridin-4-yl)methyl)piperazin-1-yl)-N,6-dimethylpicolinamide formate] | > 7.00 | > 6.52 | – | < 33% | < 33%
CCNC(=O)Nc1cc(CN2CCN(c3ccc(C(=O)NC)nc3C)CC2=O)ccn1 [Compound 29, 5-(4-((2-(3-ethylureido)pyridin-4-yl)methyl)-3-oxopiperazin-1-yl)-N,6-dimethylpicolinamide] | 5.52 to 7.00 | ≤ 5.52 | < 33% | – | < 33%
CCNC(=O)Nc1cc(CN2CCN(c3ccc(C(=O)NC)nc3C)CC2)ncn1 [Compound 230, 5-(4-((6-(3-ethylureido)pyrimidin-4-yl)methyl)piperazin-1-yl)-N,6-dimethylpicolinamide formate] | > 7.00 | > 6.52 | – | < 33% | < 33%
CCNC(=O)Nc1cc(CN2CCN(c3ccc(C(F)(F)F)cn3)CC2)ccn1 [Compound 273, 1-ethyl-3-(4-((4-(5-(trifluoromethyl)pyridin-2-yl)piperazin-1-yl)methyl)pyridin-2-yl) urea] | > 7.00 | ≤ 5.52 | < 33% | – | < 33%
CCNC(=O)Nc1cc(CN2CCN(c3ccc(C(=O)NC)c(=O)n3C)CC2)ccn1 [Compound 30, 6-(4-((2-(3-ethylureido)pyridin-4-yl)methyl)piperazin-1-yl)-N,1-dimethyl-2-oxo-1,2-dihydropyridine-3-carboxamide] | > 7.00 | 5.52 to 6.52 | < 33% | – | < 33%

Now from value to molecule, other results behind:

pIC50 [1] | pIC50 [3] | inhibition at 10 µM [2, 5] | Compound | inhibition at 10 µM [2] | inhibition at 10 µM [4]
> 7.00 | 5.52 to 6.52 | < 33% | CNC(=O)c1ccc(N2CCN(Cc3ccnc(NC(=O)NC(C)C)c3)CC2)c(C)n1 [Compound 259, 5-(4-((2-(3-isopropylureido)pyridin-4-yl)methyl)piperazin-1-yl)-N,6-dimethylpicolinamide] | – | < 33%
> 7.00 | > 6.52 | < 33% | CCNC(=O)Nc1nccc(CN2CCN(c3ccc(C(=O)NC)nc3F)CC2)c1F [Compound 81, 5-(4-((2-(3-ethylureido)-3-fluoropyridin-4-yl)methyl)piperazin-1-yl)-6-fluoro-N-methylpicolinamide] | – | < 33%
